Patent US10820588B2, “Compositionally and morphologically controlled nanostructures for delivery of micronutrients and suppression of disease in agriculture” (Wisconsin Alumni Research Foundation, priority 2018, dated 2020)

Legend:
Format in all cases: in vivo
[1] = system: Fusarium wilt of watermelon; test: Field experiment Location 2, Fusarium wilt of watermelon; settings: location 2, 400 mg/L, not statistically significant
Procedure: (§1) Field experiments were conducted to evaluate if successful greenhouse results would translate to a field application. The following six treatments were established at two field locations (Hamden, Conn.—Location 1; and Griswold, Conn.—Location 2) to evaluate their effect on growth and Fusarium wilt of watermelon: CuO nanoparticles, Cu3(PO4)2.3H2O nanosheets, commercial powders of CuO and Cu3(PO4)2, CuSO4, and untreated controls. The commercial powders are not nanostructured as particles within the powders typically have a range of sizes from about 1 μm to 1 mm. Again, the primary purpose of this work was to compare the efficacy of the two nanoscale materials, and the suspensions of CuO and Cu3(PO4)2 commercial powders and the solution of CuSO4 were included only for comparison. It is noted that the CuO and Cu3(PO4)2 materials were used at concentrations where there were solid particles present in the liquid formulations, so those liquid formulations are best characterized as being suspensions with some dissolved ions. By contrast, because of its high solubility, CuSO4 in liquid is completely dissolved and thus is a true solution (only ions present and no remaining solid). […]
(§2) Field microplots were prepared in early June, 2017. […] Total plant biomass and fruit mass were determined at harvest, and select tissues were dried for analysis by ICP mass spectrometry (ICP-MS) as noted below.

[2] = system: Fusarium wilt of watermelon; test: Field experiment Location 1, Fusarium wilt of watermelon
Procedure: as §1, §2

[3] = system: F. oxysporum f. sp. niveum; test: Greenhouse foliar spray, watermelon with or without Fusarium; settings: disease conditions
Procedure: Watermelon seeds (Citrullus lanatus Thunb. cv Sugar Baby, Harris Seed Co., Rochester, N.Y.) were germinated in soilless potting mix (ProMix BX, Premier Hort Tech, Quakertown, Pa., USA) and fertilized once after three weeks with 40 mL of Peter's soluble 20-10-20 (N—P—K) fertilizer (R. J. Peters Inc., Allentown, Pa.). When plants reached the 3- to 4-leaf stage, uniform medium size plants were selected for NP exposure. […] For CuO NP, the suspension was sonicated using a probe sonicator for 2 min in an ice bath. […] One to two drops (1 ml/L) of Regulaid® nonionic surfactant were added into the suspensions prior to exposure. Polyvinylidene chloride film (Saran™ wrap) was fitted around the stem to prevent soil exposure to the NP suspensions. Although the primary purpose of this work was to compare different nanoscale materials, bulk CuO and CuSO4 (Sigma, St. Louis, Mo.) were used for additional comparative purposes in the greenhouse experiments. […]
F. oxysporum f. sp. niveum was prepared on Japanese millet, as previously described. […] The progress of disease as represented by the cumulative ratings of disease on replicate plants was plotted over time and the AUDPC was calculated using the trapezoid rule: AUDPC=Σ[Yi±Y(i±1)]/2×(t(i±1)−ti), where Yi=the disease rating at time ti. […]

Compound: O=S(=O)([O-])[O-].[Cu+2] [CuSO4]
- increase of fruit yield [1]: 38.2%
- disease result compared with the nanomaterial treatments ([2]; field, 400 mg/L): statistically equivalent
- increase of yield (total wet mass of fruit per plot) over the disease condition ([2]; location 1, 400 mg/L): no such benefit
- effect on disease-induced decrease in vine length [3]: had no impact
